Experiments:
Plasma stability, rat = format: in vitro ADME
Method: (§1) • a. […] The final concentration of organic solvents was 0.5%. The assay was performed in duplicated. • b.
(§2) All calculations were carried out using Microsoft Excel.

human 5-HT2A receptor = human 5-HT2A receptor (Homo sapiens, UniProt P28223); experiment: Human 5-HT2A radioligand binding assay ([3H]-ketanserin)
Method: The objective of this study was to evaluate the binding properties of exemplary compounds of Formula I on 5-hydroxytryptamine receptor 2A (5-HT2A).
• 1. The assay buffer was prepared following the table below.
• 2. 8 doses of reference and test compounds starting from 10 mM stock solution as required was prepared by 5-fold serial dilutions with 100% (v/v) DMSO. • 3. UniFilter-96 GF/B plate was pretreated: • i. 50 μl/well of 0.5% (v/v) PEI was added to […]. The plates were sealed and incubated at […] for 3 hrs. • ii. After incubation, the plates were washed 3 times with ice-cold wash buffer (50 mM Tris, pH7.4). • 4. The assay plate was prepared: • i. Cell membrane was diluted with assay buffer and 330 μl/well was added to 96 round deep well plates to reach a concentration of 20 μg/well. • ii. 8 concentrations of reference or test compounds were prepared and 110 μl/well was added to 96 round deep well plates. • iii. [3H]-ketanserin was diluted with assay buffer to 5 nM (5×final concentration) and 110 μl/well was added to 96 round deep well plates. • 5. The plate was centrifuged at 1000 rpm for 30 secs and then agitated at 600 rpm, R.T. for 5 min. • 6. The plates were sealed and the plate incubated at 279C for 90 min. • 7. The incubation was stopped by vacuum filtration onto GF/B filter plates followed by 4 times washing with ice-cold wash buffer (50 mM Tris, pH7.4). • 8. The plates were dried at 379C for 45 min. • 8. The filter plates were sealed and 40 μl/well of scintillation cocktail was added. • 10. The plate was read by using a Microbeta^2 microplate counter.
• 1. For reference and test compounds, the results were expressed as % Inhibition, using the normalization equation: N=100−100×(U−C2)/(C1−C2), where U is the unknown value, C1 is the average of high controls, and C2 is the average of low controls. • 2. The IC50 was determined by fitting percentage of inhibition as a function of compound concentrations with Hill equation using XLfit.

Plasma stability, dog = format: in vitro ADME; settings: for half-life: 37° C.
Method: as §1, §2

[1] = Liver microsomes stability, human; settings: for Remaining Percentage (%) after 60 min, Human, With cofactors / Remaining Percentage (%) after 60 min, Human, Without cofactors: human liver microsomes; for half-life at 2 μM / microsomal CLint at 2 μM / metabolic stability in liver microsomes (statement): human; for half-life at 2 μM / microsomal CLint at 2 μM: pooled human liver microsomes; for metabolic stability in liver microsomes (statement): rat and mouse liver microsomes
Method: (§3) 40 μL of 10 mM NADPH solution was added to each well. The final concentration of NADPH was 1 mM. The negative control samples were prepared by replacing NADPH with 40 μL of ultra-pure H2O. Samples were prepared in duplicate. Negative controls were prepared in singlet.
(§4) This study was performed in duplicate.
(§5) LC/MS analysis was performed for all samples from this study using a Shimadzu liquid chromatograph separation system equipped with degasser DGU-20A5R; solvent delivery unit LC-30AD; system controller SIL-30AC; column oven CTO-30A; CTC Analytics HTC PAL System. Mass spectrometric analysis was performed using a Triple Quad™ 5500 instrument.
as §2
(§6) All calculations were carried out using Microsoft Excel. Peak areas were determined from extracted ion chromatograms.

[2] = Intestinal mucosal permeation using Caco-2 cell monolayers; settings: human; for Papp A→B at 2 h, 5 µM / Papp B→A at 2 h, 5 µM / efflux ratio at 2 h, 5 μM: Caco-2, pH 7.4
Method: Plate was returned to incubator.
Vortexed for 5 minutes. […] Incubated at 37° C. for 30 minutes.

Plasma stability, human = format: in vitro ADME
Method: as §1, §2

[3] = Liver microsomes stability, rat; settings: for half-life at 2 μM / microsomal CLint at 2 μM: male, rat; for half-life at 2 μM / microsomal CLint at 2 μM / Remaining Percentage (%) after 60 min, Rat, With cofactors / Remaining Percentage (%) after 60 min, Rat, Without cofactors: rat liver microsomes
Method: as §3, §4, §5, §2, §6

Plasma stability, mouse = format: in vitro ADME
Method: as §1, §2

[4] = Caco-2, pH 7.4, Percentage recovery (%) A→B, Caco-2, A→B
[5] = Caco-2, pH 7.4, Percentage recovery (%) B→A, Caco-2, B→A

Sequence of human 5-HT2A receptor (P28223 whole entry): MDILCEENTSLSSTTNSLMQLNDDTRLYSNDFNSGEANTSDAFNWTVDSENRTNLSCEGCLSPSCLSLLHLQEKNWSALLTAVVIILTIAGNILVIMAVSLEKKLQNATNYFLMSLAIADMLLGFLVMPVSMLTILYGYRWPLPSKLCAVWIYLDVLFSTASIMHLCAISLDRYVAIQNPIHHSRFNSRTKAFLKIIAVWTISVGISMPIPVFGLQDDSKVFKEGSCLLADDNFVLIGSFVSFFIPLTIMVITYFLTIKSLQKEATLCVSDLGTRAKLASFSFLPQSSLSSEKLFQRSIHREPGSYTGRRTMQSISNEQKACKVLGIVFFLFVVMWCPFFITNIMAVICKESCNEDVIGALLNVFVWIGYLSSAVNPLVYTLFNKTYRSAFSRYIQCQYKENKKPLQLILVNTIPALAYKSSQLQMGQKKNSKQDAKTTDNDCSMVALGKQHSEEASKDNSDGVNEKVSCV

Compound | Remaining Percentage (%) 0 min (Plasma stability, rat) | Remaining Percentage (%) 30 min (Plasma stability, rat) | Remaining Percentage (%) 60 min (Plasma stability, rat) | Remaining Percentage (%) 120 min (Plasma stability, rat) | Remaining Percentage (%) 180 min (Plasma stability, rat) | Remaining Percentage (%) 240 min (Plasma stability, rat) | IC50 (human 5-HT2A receptor) | Remaining Percentage (%) 0 min (Plasma stability, dog) | half-life (Plasma stability, dog) | Remaining Percentage (%) 30 min (Plasma stability, dog) | Remaining Percentage (%) 60 min (Plasma stability, dog) | Remaining Percentage (%) 120 min (Plasma stability, dog) | Remaining Percentage (%) 180 min (Plasma stability, dog) | Remaining Percentage (%) after 60 min, Human, With cofactors [1] | Papp A→B at 2 h, 5 µM [2] | Papp B→A at 2 h, 5 µM [2] | efflux ratio at 2 h, 5 μM [2] | recovery at 2 h, 5 μM [2, 4] | recovery at 2 h, 5 μM [2, 5] | Remaining Percentage (%) after 60 min, Rat, With cofactors [3] | further results
CN1CCC[C@@H]1Cc1c[nH]c2cccc(OC(=O)CCCC(=O)Oc3cccc4[nH]cc(C[C@H]5CCCN5C)c34)c12 [Compound I-13, Bis(3-(((R)-1-methylpyrrolidin-2-yl)methyl)-1H-indol-4-yl) glutarate] | 100.00% | 0.00% | 0.00% | 0.00% | 0.00% | 0.00% | 37 nM | 100.00% | 49.2 min | 67.21% | 44.90% | 15.17% | 8.32% | 0% | 0.63 ×10⁻⁶ cm/s | 4.1 ×10⁻⁶ cm/s | 6.5 | 94.7% | 110% | 0% | Remaining Percentage (%) 240 min (Plasma stability, dog): 3.48%; Remaining Percentage (%) after 60 min, Human, Without cofactors [1]: 0%; half-life at 2 μM [1]: < 4.51 min; microsomal CLint at 2 μM [1]: > 307 µL/min/mg; metabolic stability in liver microsomes (statement) [1]: rapidly metabolized; Remaining Percentage (%) 0 min (Plasma stability, human): 100.00%; Remaining Percentage (%) 30 min (Plasma stability, human): 0.00%; Remaining Percentage (%) 60 min (Plasma stability, human): 0.00%; Remaining Percentage (%) 120 min (Plasma stability, human): 0.00%; Remaining Percentage (%) 180 min (Plasma stability, human): 0.00%; Remaining Percentage (%) 240 min (Plasma stability, human): 0.00%; half-life at 2 μM [3]: < 4.51 min; microsomal CLint at 2 μM [3]: > 307 µL/min/mg; Remaining Percentage (%) after 60 min, Rat, Without cofactors [3]: 0%; Remaining Percentage (%) 0 min (Plasma stability, mouse): 100.00%; Remaining Percentage (%) 30 min (Plasma stability, mouse): 0.00%; Remaining Percentage (%) 60 min (Plasma stability, mouse): 0.00%; Remaining Percentage (%) 120 min (Plasma stability, mouse): 0.00%; Remaining Percentage (%) 180 min (Plasma stability, mouse): 0.00%; Remaining Percentage (%) 240 min (Plasma stability, mouse): 0.00%
CN1CCC[C@@H]1Cc1c[nH]c2cccc(O)c12 [Compound 10, (R)-3-((1-methylpyrrolidin-2-yl)methyl)-1H-indol-4-ol] | – | – | – | – | – | – | 219 nM | – | – | – | – | – | – | – | 23.2 ×10⁻⁶ cm/s | 18.8 ×10⁻⁶ cm/s | 0.81 | 82.7% | 92% | – | –
CN(C)CCc1c[nH]c2cccc(O)c12 [Psilocin, 4-hydroxy-N,N-dimethyltryptamine, reference compound] | – | – | – | – | – | – | – | – | – | – | – | – | – | 70.16% | 24.6 ×10⁻⁶ cm/s | 18.7 ×10⁻⁶ cm/s | – | 100% | 102% | 62.68% | t1/2 Human ([1]; human liver microsomes with NADPH, 2 μM): 117.32 min; t1/2 Rat ([3]; rat liver microsomes with NADPH, 2 μM): 89.01 min
[2H]C([2H])(c1c[nH]c2cccc(O)c12)[C@H]1CCCN1C([2H])([2H])[2H] [Compound 13, (R)-3-((1-(methyl-d3)pyrrolidin-2-yl)methyl-d2)-1H-indol-4-ol] | – | – | – | – | – | – | 219 nM | – | – | – | – | – | – | – | – | – | – | – | – | – | –
[2H]C([2H])(c1c[nH]c2cccc(OC(=O)CCCC(=O)Oc3cccc4[nH]cc(C([2H])([2H])[C@H]5CCCN5C([2H])([2H])[2H])c34)c12)[C@H]1CCCN1C([2H])([2H])[2H] [Compound I-22, bis(3-(((R)-1-(methyl-d3)pyrrolidin-2-yl)methyl-d2)-1H-indol-4-yl) glutarate] | 100.00% | 0.00% | 0.00% | 0.00% | 0.00% | 0.00% | 44.8 nM | 100.00% | 24.9 min | 39.05% | 14.86% | 3.51% | 0.92% | 0% | < 0.25 ×10⁻⁶ cm/s | 1.01 ×10⁻⁶ cm/s | > 4.08 | < 126% | 101% | 0% | Remaining Percentage (%) 240 min (Plasma stability, dog): 0.56%; Remaining Percentage (%) after 60 min, Human, Without cofactors [1]: 1.38%; half-life at 2 μM [1]: 4.67 min; microsomal CLint at 2 μM [1]: 297 µL/min/mg; metabolic stability in liver microsomes (statement) [1]: rapidly metabolized; Remaining Percentage (%) 0 min (Plasma stability, human): 100.00%; Remaining Percentage (%) 30 min (Plasma stability, human): 0.00%; Remaining Percentage (%) 60 min (Plasma stability, human): 0.00%; Remaining Percentage (%) 120 min (Plasma stability, human): 0.00%; Remaining Percentage (%) 180 min (Plasma stability, human): 0.00%; Remaining Percentage (%) 240 min (Plasma stability, human): 0.00%; half-life at 2 μM [3]: < 4.51 min; microsomal CLint at 2 μM [3]: > 307 µL/min/mg; Remaining Percentage (%) after 60 min, Rat, Without cofactors [3]: 0.22%; Remaining Percentage (%) 0 min (Plasma stability, mouse): 100.00%; Remaining Percentage (%) 30 min (Plasma stability, mouse): 0.00%; Remaining Percentage (%) 60 min (Plasma stability, mouse): 0.00%; Remaining Percentage (%) 120 min (Plasma stability, mouse): 0.00%; Remaining Percentage (%) 180 min (Plasma stability, mouse): 0.00%; Remaining Percentage (%) 240 min (Plasma stability, mouse): 0.00%

Source: patent US20260274876A1, “3-PYRROLIDINE-INDOLE DIMERS AS SEROTONERGIC AGENTS USEFUL FOR THE TREATMENT OF DISORDERS RELATED THERETO” (MINDSET PHARMA INC., priority 2022, published 2026)
